Reference: patent US6057135A, “Process for manufacturing D-tagatose” (Kraft Foods, Inc., priority 1992, dated 2000)
Values belong to the compound of their own block, whether it stands above or below them.

How the values were obtained:
L-arabinose isomerase [1] = biological target: T1, L-arabinose isomerase (Lactiplantibacillus pentosus, UniProt Q6UA74); test: L-arabinose isomerase activity assay (cysteine-carbazole ketose determination), enzyme from Lactobacillus pentosus ATCC 8041; assay type: biochemical; details: for % Activity with activator (None = 100): metal ion activator, bioconversion of D-galactose; for Enzyme Activity: 10 minutes, 0.1 M L-arabinose or 0.2 M D-galactose as substrate; for total activity, Present Invention Data / activity (10 min.), Present Invention Data: substrate as labelled, propagation 24 hours, 37° C., pH 6.5, BYF 100 medium; for activity (10 min.), Present Invention Data: per g cell mass
T1 construct: whole cells, sonicated cell-free extract or immobilized, from L-arabinose-induced culture
T1 sequence (Q6UA74 1-474): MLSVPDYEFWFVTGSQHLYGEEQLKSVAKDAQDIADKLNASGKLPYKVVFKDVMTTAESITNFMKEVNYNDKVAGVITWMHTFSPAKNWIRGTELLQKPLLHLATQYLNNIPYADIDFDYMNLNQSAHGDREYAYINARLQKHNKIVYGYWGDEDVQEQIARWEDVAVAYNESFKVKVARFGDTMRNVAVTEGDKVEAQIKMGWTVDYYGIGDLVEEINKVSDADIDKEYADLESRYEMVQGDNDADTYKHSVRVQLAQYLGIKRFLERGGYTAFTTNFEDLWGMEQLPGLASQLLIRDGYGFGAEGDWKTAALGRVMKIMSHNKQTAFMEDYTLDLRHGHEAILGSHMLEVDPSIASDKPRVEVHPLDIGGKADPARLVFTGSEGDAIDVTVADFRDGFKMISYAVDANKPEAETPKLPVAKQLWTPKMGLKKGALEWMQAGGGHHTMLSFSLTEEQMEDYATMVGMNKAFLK
Description: The activity of L-arabinose isomerase can be assayed based on the appearance of keto-pentose (L-ribulose) or keto-hexose (D-tagatose) after incubation in the presence of the substrate aldo-pentose (L-arabinose) or aldo-hexose (D-galactose), respectively. The keto-pentose or keto-hexose can be measured colorimetrically utilizing cysteine-carbazole sulfuric acid as a reagent. The cysteine-carbazole method is described in, Zacharias Dische, "Color Reaction of Ketoses with Carbazole and Sulfuric Acid", Methods in Carbohydrate Chemistry (1962) page 481 [132]. Samples should be analyzed in duplicate, utilizing one sample as a blank to correct for substances which may interfere with the calorimetric ketose determination.
For purposes of this specification, one unit of L-arabinose isomerase activity is defined as that amount of enzyme which is required to produce one micromole of L-ribulose or D-tagatose from the respective substrates, L-arabinose or D-galactose, following ten minutes of incubation under assay conditions.
Following 24 hours of propagation, the cell mass was harvested and washed with a phosphate or maleate buffer at pH 6.5. The L-arabinose isomerase was extracted from the harvested cells by sonication.
To 1.0 ml of the bioconversion reaction medium (using a dilution factor if needed) the following is added:
0.2 ml of cystein hydrochloride (1.5% in water);
6.0 ml 75% sulfuric acid (450 ml conc. sulfuric acid+190 ml water); and
0.2 ml of 0.12% alcohol solution of carbazole (0.12 gram carbazole in 100 ml 95% ethanol).
The test tubes are incubated for 10 minutes at 57° C. and optical density (O.D.) is read at 540. The D-galactose substrate is used as a blank for reference.
A series of bioconversions were conducted with varied parameters to determine optimum conditions for Lactobacillus pentosus L-arabinose isomerase.

L-arabinose isomerase [2] = biological target: T2, L-arabinose isomerase (Bacillus amyloliquefaciens, UniProt A0A9P1JJ98); test: L-arabinose isomerase bioconversion of D-galactose to D-tagatose, enzyme from Bacillus amyloliquefaciens IFO 3022; assay type: biochemical; details: for D-TAGATOSE / O.D. (X - B): 1.67 M D-galactose, 60° C., 120 min.
T2 construct: crude enzyme
T2 sequence (A0A9P1JJ98 1-499): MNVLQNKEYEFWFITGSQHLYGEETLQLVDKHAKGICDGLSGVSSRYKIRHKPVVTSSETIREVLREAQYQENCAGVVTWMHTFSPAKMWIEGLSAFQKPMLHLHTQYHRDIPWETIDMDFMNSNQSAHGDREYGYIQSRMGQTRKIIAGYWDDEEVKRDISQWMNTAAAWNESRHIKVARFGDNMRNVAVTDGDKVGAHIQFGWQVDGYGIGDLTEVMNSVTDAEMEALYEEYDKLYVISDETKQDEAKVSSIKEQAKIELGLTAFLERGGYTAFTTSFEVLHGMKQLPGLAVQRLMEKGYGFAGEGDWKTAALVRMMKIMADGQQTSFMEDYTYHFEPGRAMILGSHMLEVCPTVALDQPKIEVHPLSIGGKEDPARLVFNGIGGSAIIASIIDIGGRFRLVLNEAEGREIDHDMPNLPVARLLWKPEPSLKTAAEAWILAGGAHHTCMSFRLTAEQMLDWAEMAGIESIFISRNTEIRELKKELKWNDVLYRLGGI
Description: Bacillus amyloliquefaciens (previously known as Bacillus subtilis, IFO 3022, was evaluated as a source of L-arabinose isomerase. Cells of the culture were propagated on the same medium as used in Example 1 in the presence of L-arabinose as a carbon source. Optimum pH, temperature, metal ion and metal ion concentration were evaluated as summarized below.
In the following tests, sample B was comprised of 0.8 ml. D-galactose and 0.2 ml. water and sample X was comprised of 0.8 ml. D-galactose an 0.2 ml. enzyme. The dilution factor for the optical density (O.D.) reading was 200×. (The cystein carbazole method was used for the D-tagatose assay.)

L-arabinose isomerase [3] = test: L-arabinose isomerase bioconversion of D-galactose to D-tagatose, enzyme from Arthrobacter sp. ATCC 21920; assay type: biochemical; details: for D-TAGATOSE / O.D. (X - B): 1.67 M D-galactose, 60° C., 120 min.
Description: The cultures were screened based on cell propagation on medium #1 of Example 3 in the presence of L-arabinose as a carbon source.
Cells of Arthrobacter sp. ATCC 21920 were propagated on medium #1 of Example 3 in the presence of L-arabinose as a carbon source. Optimum pH, temperature, metal ion and metal ion concentration were evaluated on the cell extract containing L-arabinose isomerase as summarized below.
In the following tests, sample B was comprised of 0.8 ml. D-galactose and 0.2 ml. water and sample X was comprised of 0.8 ml. D-galactose and 0.2 ml. enzyme. The dilution factor for the optical density (O.D.) reading was 200×.

L-arabinose isomerase [4] = details: cited from earlier work; for affinity of the isomerase for the sugar: Yamanaka and Wood, 1966
[5] = tested on: L-arabinose-L-ribulose-isomerase; details: Simpson, 1958; cited from earlier work
L-arabinose isomerase [6] = biological target: T3, L-arabinose isomerase (Mycolicibacterium smegmatis, UniProt Q9RHG2); details: Izumori et al., 1978; cited from earlier work
T3 construct: L-arabinose isomerases from Mycobacterium smegmatis induced by L-arabinose and D-galactose; host or cells: Mycobacterium smegmatis
T3 sequence (Q9RHG2 whole entry): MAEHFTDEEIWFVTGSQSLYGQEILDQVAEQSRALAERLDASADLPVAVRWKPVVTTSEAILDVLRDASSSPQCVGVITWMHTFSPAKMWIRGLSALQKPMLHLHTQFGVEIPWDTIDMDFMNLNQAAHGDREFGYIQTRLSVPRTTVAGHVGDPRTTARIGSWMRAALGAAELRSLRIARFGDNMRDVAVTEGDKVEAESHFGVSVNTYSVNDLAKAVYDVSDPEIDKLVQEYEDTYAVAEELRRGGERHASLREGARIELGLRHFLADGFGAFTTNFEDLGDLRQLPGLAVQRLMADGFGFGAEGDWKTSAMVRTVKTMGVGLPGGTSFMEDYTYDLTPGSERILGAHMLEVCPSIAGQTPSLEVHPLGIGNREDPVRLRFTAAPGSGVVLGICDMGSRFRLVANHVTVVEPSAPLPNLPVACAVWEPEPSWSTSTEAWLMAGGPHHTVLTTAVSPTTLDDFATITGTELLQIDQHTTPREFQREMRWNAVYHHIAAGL

[7] = at about 25° C.; cited from earlier work
[8] = 0.005 M metallic ion, O.D. 540, dilution 200×

Compound: [Ca] [Calcium]
% Activity with activator (None = 100) (L-arabinose isomerase [1]): 143% | D-TAGATOSE (L-arabinose isomerase [2]; 0.005 M metallic ion): 0.009 M | O.D. (X - B) (L-arabinose isomerase [2]; [8]): 0.1802 | D-TAGATOSE (L-arabinose isomerase [3]; 0.005 M metallic ion): 0.033 M | O.D. (X - B) (L-arabinose isomerase [3]; [8]): 0.7107

Compound: [Co+2] [Cobalt]
% Activity with activator (None = 100) (L-arabinose isomerase [1]): 200% | D-TAGATOSE (L-arabinose isomerase [2]; 0.005 M metallic ion): 0.005 M | O.D. (X - B) (L-arabinose isomerase [2]; [8]): 0.0970 | D-TAGATOSE (L-arabinose isomerase [3]; 0.005 M metallic ion): 0.050 M | O.D. (X - B) (L-arabinose isomerase [3]; [8]): 1.0764

Compound: C[C@@H](O)[C@H](O)[C@H](O)[C@@H](O)C=O [D-fucose]
affinity of the isomerase for the sugar (L-arabinose isomerase [4]): low affinity

Compound: O=C[C@H](O)[C@@H](O)[C@@H](O)[C@H](O)CO [D-galactose]
Enzyme Activity (L-arabinose isomerase [1]; 35° C.): 0.07 u/ml. | Enzyme Activity (L-arabinose isomerase [1]; 60° C.): 0.90 u/ml. | Km (D-galactose), as % (L-arabinose isomerase [1]; crude enzyme, L. pentosus): 20% | total activity, Present Invention Data (L-arabinose isomerase [1]): 395 u/L. | activity (10 min.), Present Invention Data (L-arabinose isomerase [1]): 45 u/g. | Km (D-galactose), as % (L-arabinose isomerase [2]; crude enzyme, B. amylo.): 12% | L-arabinose isomerase activity (L-arabinose isomerase [3]; D-galactose as a substrate, 10 min. incubation): 21 U/g/10 min. | Km (D-galactose), as % (L-arabinose isomerase [3]; crude enzyme, Arthrobacter): 15% | activity of L-arabinose isomerase on the sugar (L-arabinose isomerase [4]; Nakamatu, Biochim. Biophys. Acta 178): slight | affinity of the isomerase for the sugar (L-arabinose isomerase [4]): low affinity | substrate quality for L-arabinose-L-ribulose-isomerase [5]: slow | substrate of the isomerase (L-arabinose isomerase [6]): not a substrate of the isomerase | maximum solubility in water [7]: about 70 % by weight

Compound: [Fe+3] [Ferric]
D-TAGATOSE (L-arabinose isomerase [2]; 0.005 M metallic ion): 0.018 M | O.D. (X - B) (L-arabinose isomerase [2]; [8]): 0.3817 | D-TAGATOSE (L-arabinose isomerase [3]; 0.005 M metallic ion): 0.037 M | O.D. (X - B) (L-arabinose isomerase [3]; [8]): 0.8003

% Activity with activator (None = 100) (L-arabinose isomerase [1]): 200% | % Activity over activator range (L-arabinose isomerase [1]; range 1 MM-10 MM): 123-250% | D-TAGATOSE (L-arabinose isomerase [2]; 0.005 M metallic ion): 0.020 M | O.D. (X - B) (L-arabinose isomerase [2]; [8]): 0.4438 | D-TAGATOSE (L-arabinose isomerase [3]; 0.005 M metallic ion): 0.037 M | O.D. (X - B) (L-arabinose isomerase [3]; [8]): 0.8030
Compound: [Fe+2] [Ferrous]

Compound: O=C[C@H](O)[C@@H](O)[C@@H](O)CO [L-arabinose, reference compound]
Enzyme Activity (L-arabinose isomerase [1]; 35° C.): 24.6 u/ml. | Enzyme Activity (L-arabinose isomerase [1]; 60° C.): 68.1 u/ml. | total activity, Present Invention Data (L-arabinose isomerase [1]): 4,220 u/L. | activity (10 min.), Present Invention Data (L-arabinose isomerase [1]): 425 u/g. | affinity of the isomerase for the sugar (L-arabinose isomerase [4]): high affinity | total activity, Published Data (L-arabinose isomerase [4]; substrate as labelled, propagation 24 hours, 37° C.): 525 u/L. | activity (10 min.), Published Data (L-arabinose isomerase [4]; substrate as labelled, propagation 24 hours, 37° C., per g cell mass): 350 u/g.

% Activity with activator (None = 100) (L-arabinose isomerase [1]): 141% | D-TAGATOSE (L-arabinose isomerase [2]; 0.005 M metallic ion): 0.005 M | O.D. (X - B) (L-arabinose isomerase [2]; [8]): 0.1048 | D-TAGATOSE (L-arabinose isomerase [3]; 0.005 M metallic ion): 0.036 M | O.D. (X - B) (L-arabinose isomerase [3]; [8]): 0.7890
Compound: [Mg] [Magnesium]

% Activity with activator (None = 100) (L-arabinose isomerase [1]): 177% | D-TAGATOSE (L-arabinose isomerase [2]; 0.005 M metallic ion): 0.035 M | O.D. (X - B) (L-arabinose isomerase [2]; [8]): 0.7610 | D-TAGATOSE (L-arabinose isomerase [2]; manganese ion 0.001 M): 0.036 M | O.D. (X - B) (L-arabinose isomerase [2]; manganese ion 0.001 M): 0.7723 | D-TAGATOSE (L-arabinose isomerase [2]; manganese ion 0.003 M): 0.030 M | O.D. (X - B) (L-arabinose isomerase [2]; manganese ion 0.003 M): 0.6441 | D-TAGATOSE (L-arabinose isomerase [2]; manganese ion 0.005 M): 0.031 M | O.D. (X - B) (L-arabinose isomerase [2]; manganese ion 0.005 M): 0.6815 | D-TAGATOSE (L-arabinose isomerase [2]; manganese ion 0.007 M): 0.031 M | O.D. (X - B) (L-arabinose isomerase [2]; manganese ion 0.007 M): 0.6678 | D-TAGATOSE (L-arabinose isomerase [2]; manganese ion 0.009 M): 0.030 M | O.D. (X - B) (L-arabinose isomerase [2]; manganese ion 0.009 M): 0.6591 | D-TAGATOSE (L-arabinose isomerase [2]; manganese ion 0.011 M): 0.032 M | O.D. (X - B) (L-arabinose isomerase [2]; manganese ion 0.011 M): 0.7007 | D-TAGATOSE (L-arabinose isomerase [2]; manganese ion 0.013 M): 0.032 M | O.D. (X - B) (L-arabinose isomerase [2]; manganese ion 0.013 M): 0.6851 | D-TAGATOSE (L-arabinose isomerase [3]; 0.005 M metallic ion): 0.044 M | O.D. (X - B) (L-arabinose isomerase [3]; [8]): 0.9574 | D-TAGATOSE (L-arabinose isomerase [3]; manganese ion 0.001 M): 0.041 M | O.D. (X - B) (L-arabinose isomerase [3]; manganese ion 0.001 M): 0.8919 | D-TAGATOSE (L-arabinose isomerase [3]; manganese ion 0.003 M): 0.035 M | O.D. (X - B) (L-arabinose isomerase [3]; manganese ion 0.003 M): 0.7600 | D-TAGATOSE (L-arabinose isomerase [3]; manganese ion 0.005 M): 0.040 M | O.D. (X - B) (L-arabinose isomerase [3]; manganese ion 0.005 M): 0.8848 | D-TAGATOSE (L-arabinose isomerase [3]; manganese ion 0.007 M): 0.042 M | O.D. (X - B) (L-arabinose isomerase [3]; manganese ion 0.007 M): 0.9057 | D-TAGATOSE (L-arabinose isomerase [3]; manganese ion 0.009 M): 0.051 M | O.D. (X - B) (L-arabinose isomerase [3]; manganese ion 0.009 M): 1.1175 | D-TAGATOSE (L-arabinose isomerase [3]; manganese ion 0.011 M): 0.043 M | O.D. (X - B) (L-arabinose isomerase [3]; manganese ion 0.011 M): 0.9333 | D-TAGATOSE (L-arabinose isomerase [3]; manganese ion 0.013 M): 0.049 M | O.D. (X - B) (L-arabinose isomerase [3]; manganese ion 0.013 M): 1.0753
Compound: [Mn+2] [Manganese]

% Activity with activator (None = 100) (L-arabinose isomerase [1]): 110% | D-TAGATOSE (L-arabinose isomerase [2]; 0.005 M metallic ion): 0.007 M | O.D. (X - B) (L-arabinose isomerase [2]; [8]): 0.1596 | D-TAGATOSE (L-arabinose isomerase [3]; 0.005 M metallic ion): 0.012 M | O.D. (X - B) (L-arabinose isomerase [3]; [8]): 0.2544
Compound: [Zn+2] [Zinc]
